# Measurements taken from US20240174637A1, “DEGRADERS OF GRK2 AND USES THEREOF” (Sonata Therapeutics, Inc., priority 2021, published 2024).
# Where a name gives a salt, the structure may show the parent alone.
# Columns and labels:
# GRK2 [1] = molecular target: T1, GRK2 (Homo sapiens, UniProt P25098); test: GRK2 Degradation Assay and Western Blot in PAXF1657 cells; type: cell-based; parameters: endogenous in cells; host or cells: PAXF1657; conditions: for inhibition at 0.3 µM: Conc 0.3 uM; for inhibition at 0.3 µM / inhibition at 1 µM / inhibition at 3 µM: read-out: Degradation Assay - 3 point: Degradation (%); for inhibition at 1 µM: Conc 1 uM; for inhibition at 3 µM: Conc 3 uM; for DC50: PAXF1657, 24 h, read-out: Degradation Assay - Full Dose Response: IC50 (uM) [cell line: PAXF1657, time point: 24 h]
# T1 sequence (P25098 1-689): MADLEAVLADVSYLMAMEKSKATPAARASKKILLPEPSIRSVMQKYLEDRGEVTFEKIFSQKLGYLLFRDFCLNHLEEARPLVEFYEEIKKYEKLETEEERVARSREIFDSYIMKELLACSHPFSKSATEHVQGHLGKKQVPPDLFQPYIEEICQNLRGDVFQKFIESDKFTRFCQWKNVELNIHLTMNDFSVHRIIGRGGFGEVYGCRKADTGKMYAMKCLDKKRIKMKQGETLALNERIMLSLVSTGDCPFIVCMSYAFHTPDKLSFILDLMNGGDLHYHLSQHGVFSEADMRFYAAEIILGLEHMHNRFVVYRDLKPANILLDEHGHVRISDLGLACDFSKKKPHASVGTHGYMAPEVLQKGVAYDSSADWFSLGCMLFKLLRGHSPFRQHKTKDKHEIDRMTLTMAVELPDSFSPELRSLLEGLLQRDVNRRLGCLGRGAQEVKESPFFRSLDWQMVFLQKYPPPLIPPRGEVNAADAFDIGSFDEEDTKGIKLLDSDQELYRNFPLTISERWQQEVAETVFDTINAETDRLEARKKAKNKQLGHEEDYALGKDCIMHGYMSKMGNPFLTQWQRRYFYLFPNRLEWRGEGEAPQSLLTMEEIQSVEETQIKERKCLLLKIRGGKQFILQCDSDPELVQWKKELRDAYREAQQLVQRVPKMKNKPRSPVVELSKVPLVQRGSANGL
# Outline: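 PAXF1657 cells grown to 70% confluency, then treated with compounds at 0–10 μM for 6 to 24 h at 37 °C. Lysates in PBS with 1% NP40 run on SDS-PAGE. GRK2 protein detected by western blot with β-actin as loading reference, using ECL chemiluminescence.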
# GRK2 [2] = molecular target: T1, GRK2; test: GRK2 Inhibition Assay (TR-FRET, Example 1); type: biochemical; conditions: Table 4; Example 1 assay; read-out: Enzymatic GRK2 IC50: Av IC50 GRK2
# Outline: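 GRK2 (1 nM) pre-incubated 30 min RT with compounds in HEPES/MgCl2/DTT/Tween-20/EGTA buffer, then reacted 90 min RT with 7 μM ATP and 50 nM ULight-TopoIIα substrate. Stopped with EDTA plus Eu anti-TopoIIα antibody; TR-FRET read after 60 min.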
# PAXF1657 KO Clone #4 = test: 7-day cellular proliferation assay (CellTiter-Glo), PAXF1657 KO Clone #4; type: cell-based; conditions: proliferation, read-out: GeoMean IC50 (uM) PAXF1657 KO Clone #4
# Outline: (§1)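 PAXF1657 pancreatic cancer cells (GRK2-overexpressing vs empty vector; CRISPR GRK2 knockout vs non-targeting control) were seeded at 500 cells/well in RPMI1640/10% FBS, then given a 10-point series, 30 μM-0.0002 μM in 0.3% DMSO. Medium and compound were refreshed after 3 days; CellTiter-Glo luminescence was read at day 7.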
# PAXF1657 EV = test: 7-day cellular proliferation assay (CellTiter-Glo), PAXF1657 EV; type: cell-based; conditions: proliferation, read-out: GeoMean IC50 (UM) PAXF1657 EV
# Outline: as §1
Compound,inhibition at 0.3 µM (GRK2 [1]),inhibition at 1 µM (GRK2 [1]),inhibition at 3 µM (GRK2 [1]),DC50 (GRK2 [1]),IC50 (GRK2 [2]),IC50 (PAXF1657 KO Clone #4),IC50 (PAXF1657 EV)
"C[C@@H](NC(=O)c1cccc(NCc2nnc(-c3ccncn3)n2C)c1)c1cccc(OCCCCCCOCCOCCOCCC(=O)N2CCN(c3cc4c(cc3F)C(=O)N(C3CCC(=O)NC3=O)C4=O)CC2)c1 (stereo partly drawn) [Compound D130, N-((1R)-1-(3-(6-(2-(2-(3-(4-(2-(2,6-dioxopiperidin-3-yl)-6-fluoro-1,3-dioxoisoindolin-5-yl)piperazin-1-yl)-3-oxopropoxy)ethoxy)ethoxy)hexyloxy)phenyl)ethyl)-3-((4-methyl-5-(pyrimidin-4-yl)-4H-1,2,4-triazol-3-yl)methylamino)benzamide]",78.7%,84.7%,90.7%,0.29 µM,17.9 nM,24.7 µM,880 nM
"C[C@@H](NC(=O)c1cccc(NCc2nnc(-c3ccncn3)n2C)c1)c1cccc(OCCCCCCOCCOCC(=O)Nc2cccc3c2CN(C2CCC(=O)NC2=O)C3=O)c1 (stereo partly drawn) [Compound D170, N-((1R)-1-(3-((6-(2-(2-((2-(2,6-dioxopiperidin-3-yl)-1-oxoisoindolin-4-yl)amino)-2-oxoethoxy)ethoxy)hexyl)oxy)phenyl)ethyl)-3-(((4-methyl-5-(pyrimidin-4-yl)-4H-1,2,4-triazol-3-yl)methyl)amino)benzamide]",51.6%,72.9%,81.5%,–,12.1 nM,> 30 µM,410 nM
"C[C@H](NC(=O)c1cccc(NCc2nnc(-c3ccncn3)n2C)c1)c1ccc(OCCCCCOCCCOCC(=O)Nc2cccc3c2CN(C2CCC(=O)NC2=O)C3=O)cc1 (stereo partly drawn) [Compound D150, N-((1S)-1-(4-((5-(3-(2-((2-(2,6-dioxopiperidin-3-yl)-1-oxoisoindolin-4-yl)amino)-2-oxoethoxy)propoxy)pentyl)oxy)phenyl)ethyl)-3-(((4-methyl-5-(pyrimidin-4-yl)-4H-1,2,4-triazol-3-yl)methyl)amino)benzamide]",44%,43%,40%,–,> 1000 nM,> 30 µM,27700 nM
"C[C@@H](NC(=O)c1cccc(NCc2nnc(-c3ccncn3)n2C)c1)c1cccc(OCCCCCOCCCOCC(=O)N2CCN(c3ccc4c(c3)CN(C3CCC(=O)NC3=O)C4=O)CC2)c1 (stereo partly drawn) [Compound D181, N-((1R)-1-(3-((5-(3-(2-(4-(2-(2,6-dioxopiperidin-3-yl)-1-oxoisoindolin-5-yl)piperazin-1-yl)-2-oxoethoxy)propoxy)pentyl)oxy)phenyl)ethyl)-3-(((4-methyl-5-(pyrimidin-4-yl)-4H-1,2,4-triazol-3-yl)methyl)amino)benzamide]",55%,78%,86%,–,11.8 nM,> 30 µM,580 nM
C[C@@H](NC(=O)c1cccc(NCc2nnc(-c3ccncn3)n2C)c1)c1cccc(OCCCCCCOCCOCCOCCCCCC(=O)Nc2cccc3c2CN(C2CCC(=O)N(C)C2=O)C3=O)c1 (stereo partly drawn) [Compound D190],-22%,51%,53%,–,12.7 nM,26.8 µM,1740 nM
Cc1ncsc1-c1ccc(CNC(=O)[C@@H]2C[C@@H](O)CN2C(=O)[C@@H](NC(=O)CCCCCOCCOCCOCCCCCCOc2cccc([C@H](C)NC(=O)c3cccc(NCc4nnc(-c5ccncn5)n4C)c3)c2)C(C)(C)C)cc1 [Compound D153],10%,12%,18%,–,125 nM,6.82 µM,340 nM
CN[C@@H](C)C(=O)N[C@H](C(=O)N1CCC[C@H]1c1nc(C(=O)c2cccc(OCc3cn(CCCCCCOc4cccc([C@@H](C)NC(=O)c5cccc(NCc6nnc(-c7ccncn7)n6C)c5)c4)nn3)c2)cs1)C1CCCCC1 [Compound D105],87%,86%,85%,–,8.71 nM,3.72 µM,110 nM
"C[C@@H](NC(=O)c1cccc(NCc2nnc(-c3ccncn3)n2C)c1)c1ccc(OCCCCCCOCCOCCOCCCC(=O)N2CCN(c3cc4c(cc3F)C(=O)N(C3CCC(=O)NC3=O)C4=O)CC2)cc1 (stereo partly drawn) [Compound D125, N-((1R)-1-(4-(6-(2-(2-(4-(4-(2-(2,6-dioxopiperidin-3-yl)-6-fluoro-1,3-dioxoisoindolin-5-yl)piperazin-1-yl)-4-oxobutoxy)ethoxy)ethoxy)hexyloxy)phenyl)ethyl)-3-((4-methyl-5-(pyrimidin-4-yl)-4H-1,2,4-triazol-3-yl)methylamino)benzamide]",71.9%,82.5%,76.4%,–,1.13 nM,26.6 µM,110 nM

# The remaining compounds from weak to strong by IC50 (GRK2 [2]), led by results:
inhibition at 0.3 µM (GRK2 [1]),inhibition at 1 µM (GRK2 [1]),inhibition at 3 µM (GRK2 [1]),DC50 (GRK2 [1]),IC50 (GRK2 [2]),Compound,IC50 (PAXF1657 KO Clone #4),IC50 (PAXF1657 EV)
1.79%,17.5%,19.2%,–,211 nM,"C[C@H](NC(=O)c1cccc(NCc2nnc(-c3ccncn3)n2C)c1)c1cccc(OCCCCCOCCCOCC(=O)Nc2cccc3c2CN(C2CCC(=O)NC2=O)C3=O)c1 (stereo partly drawn) [Compound D185, N-((1S)-1-(3-((5-(3-(2-((2-(2,6-dioxopiperidin-3-yl)-1-oxoisoindolin-4-yl)amino)-2-oxoethoxy)propoxy)pentyl)oxy)phenyl)ethyl)-3-(((4-methyl-5-(pyrimidin-4-yl)-4H-1,2,4-triazol-3-yl)methyl)amino)benzamide]",> 30 µM,> 30000 nM
17.5%,68.7%,89.2%,0.24 µM,26.6 nM,"C[C@@H](NC(=O)c1cccc(NCc2nnc(-c3ccncn3)n2C)c1)c1cccc(OCCCCCCOCCOCCOCCC(=O)N2CCN(c3ccc4c(c3)CN(C3CCC(=O)NC3=O)C4=O)CC2)c1 (stereo partly drawn) [Compound D131, N-((1R)-1-(3-(6-(2-(2-(3-(4-(2-(2,6-dioxopiperidin-3-yl)-1-oxoisoindolin-5-yl)piperazin-1-yl)-3-oxopropoxy)ethoxy)ethoxy)hexyloxy)phenyl)ethyl)-3-((4-methyl-5-(pyrimidin-4-yl)-4H-1,2,4-triazol-3-yl)methylamino)benzamide]",> 30 µM,220 nM
36.7%,78.1%,86%,–,24.9 nM,"C[C@@H](NC(=O)c1cccc(NCc2nnc(-c3ccncn3)n2C)c1)c1cccc(OCCCCCCOCCOCCOCCCCCC(=O)N2CCN(c3ccc4c(c3)CN(C3CCC(=O)NC3=O)C4=O)CC2)c1 (stereo partly drawn) [Compound D191, N-((1R)-1-(3-((6-(2-(2-((6-(4-(2-(2,6-dioxopiperidin-3-yl)-1-oxoisoindolin-5-yl)piperazin-1-yl)-6-oxohexyl)oxy)ethoxy)ethoxy)hexyl)oxy)phenyl)ethyl)-3-(((4-methyl-5-(pyrimidin-4-yl)-4H-1,2,4-triazol-3-yl)methyl)amino)benzamide]",> 30 µM,320 nM
90%,93.7%,89%,–,16.1 nM,"C[C@@H](NC(=O)c1cccc(NCc2nnc(-c3ccncn3)n2C)c1)c1cccc(C(=O)N2CCC(CCCN3CCN(c4ccc5c(c4)CN(C4CCC(=O)NC4=O)C5=O)CC3)CC2)c1 (stereo partly drawn) [Compound D119, N-((1R)-1-(3-(4-(3-(4-(2-(2,6-dioxopiperidin-3-yl)-1-oxoisoindolin-5-yl)piperazin-1-yl)propyl)piperidine-1-carbonyl)phenyl)ethyl)-3-((4-methyl-5-(pyrimidin-4-yl)-4H-1,2,4-triazol-3-yl)methylamino)benzamide hydrochloride]",2.73 µM,116 nM
88%,82%,83%,0.11 µM,10.4 nM,C[C@@H](NC(=O)c1cccc(NCc2nnc(-c3ccncn3)n2C)c1)c1cccc(OCCCCCCOCCOCCNc2cccc3c2CN(C2CCC(=O)NC2=O)C3=O)c1 (stereo partly drawn) [Compound D143],5.32 µM,110 nM
